{"source": "patent EP0639584B1", "about": "“Preparation and screening of highly diverse peptide libraries for binding activity” (INTERPHARM LABORATORIES LTD., priority 1993, dated 1995)", "key": {"TBP1": {"biological_target": "T1, TBP1 (Homo sapiens, UniProt P19438)", "T1 construct": "soluble extracellular domain of TNF receptor type 1, p55; host or cells: CHO", "T1 sequence (P19438 41-201 limits assumed)": "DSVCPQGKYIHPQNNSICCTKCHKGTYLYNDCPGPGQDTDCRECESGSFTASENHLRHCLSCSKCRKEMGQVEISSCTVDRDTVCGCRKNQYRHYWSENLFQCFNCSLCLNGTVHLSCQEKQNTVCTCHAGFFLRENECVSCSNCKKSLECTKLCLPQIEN", "experiment": "Binding of TBP1 to peptides on beads, ELISA with soluble substrate (pNPP, O.D. at 405 nm)"}, "rabbit immunoglobulins": {"tested_on": "rabbit immunoglobulins", "experiment": "Immunostaining of library beads containing N-DSer-DLys-LVal to verify specificity", "assay_type": "binding", "procedure": "7. First screening of the polystyrene peptide library with TBP1. One quarter (400 µl packed) of the total number of beads were blocked with 5% FBS in PBS (1 ml for 45 minutes), to avoid nonspecific binding, and incubated with TBP1 (1 ml at a concentration of 10µg/ml in FBS/PBS for 45 minutes) followed by polyclonal rabbit anti-TBP1 (1:500 in FBS/PBS, 1 ml for 1 hour) and alkaline phosphatase conjugated goat anti-rabbit Ig antibodies (1:2000 in FBS/PBS, 1 ml for 40 minutes). The signal was generated by BCIP/NBT substrate (12 ml in 9 cm petri dish; further details as in 5 above). More than 50 stained beads were selected and three of them were subjected to sequencing. […] The BCIP/NBT substrate that we used in order to stain the beads could not be destained by any treatment that we tried (organic solvents, urea, SDS, NaOH, boiling, sonication and combinations of all of the above), and we therefore decided to use another alkaline phosphatase substrate which could be readily destained. […]"}, "[1]": {"tested_on": "Immunoglobulins from other animal species and from humans", "experiment": "Immunostaining of library beads containing N-DSer-DLys-LVal to verify specificity, other immunoglobulins", "assay_type": "binding"}, "[2]": {"tested_on": "Monoclonal antibody to human β-endorphin", "experiment": "Staining of beads with anti-endorphin McAb clone 3-E7 (alkaline phosphatase/BCIP)", "assay_type": "binding, mouse", "settings": "antibody 200 ng/ml, BCIP 2 hours", "procedure": "Staining of the beads was performed using the following steps (all incubation steps were performed with continuous mixing of the beads): • a. Washes of the beads with wash buffer. • b. Incubation of the beads with blocking buffer for 45 minutes to block non-specific interactions. • c. Incubation of the beads with the monoclonal antibody to human β-endorphin diluted to 200 ng/ml in blocking buffer for 40 minutes. • d. Six washes with wash buffer. • e. Incubation of the beads with the polyclonal rabbit antibodies against mouse IgG conjugated with alkaline phosphatase, diluted 1:1000 in blocking buffer for 40 minutes. • f. Six washes with wash buffer and one wash with Tris (25mM), NaC1 (125 mM), Tween (0.1%). • g. Incubation of the beads with BCIP diluted to 500 ug/ml in 0.1M Tris pH 9.0, for 2 hours. • h. Two washes with H2O, transfer of the beads to petri dishes and observation for blue stained beads (using a stereomicroscope)."}}, "data": [{"substance": "N-DAla-DGlu-LMet", "values": [{"measurement": "OD", "setting": "TBP1; relative to background, peptide on around 100,000 beads, soluble substrate", "result": "ten times higher than background"}, {"measurement": "OD in presence of the TBP1", "setting": "TBP1; relative to the antibodies only", "result": "four times higher"}, {"measurement": "response with antibodies alone", "setting": "TBP1; without TBP1", "result": "lack of response"}]}, {"substance": "N-DSer-DLys-LVal", "values": [{"measurement": "recognition of rabbit immunoglobulins", "setting": "rabbit immunoglobulins; from both rabbit anti-TBP1 antiserum and normal rabbit serum", "result": "specifically recognized"}, {"measurement": "Immunostaining performed with and without TBP1", "setting": "rabbit immunoglobulins; surface staining", "result": "specificity to the antibodies"}, {"measurement": "recognition of immunoglobulins from other animal species and from humans", "setting": "[1]", "result": "not recognized"}]}, {"substance": "n-His-Pro-Tyr-Pro-Pro (HPYPP; on TentaGel beads; printed: His-Pro-Tyr-Pro-Pro) [Model HPYPP]", "values": [{"measurement": "Number of Blue-stained Beads", "setting": "[2]", "result": "none of the beads"}]}, {"substance": "n-Tyr-Gly-Gly-Phe-Leu [Model YGGFL]", "values": [{"measurement": "Number of Blue-stained Beads", "setting": "[2]", "result": "most of the beads"}]}]}
